# Test results reported in patent US11572402B2, “Method for promoting diversification of antibody variable region” (Chiome Bioscience Inc., priority 2017, dated 2023).
# System: CL18_M− cell line
# Test: Light chain gene conversion (GC) analysis according to Reversion assay
# Format: cell-based, chicken
# Conditions: one and two weeks of culture, PI3Kα Inhibitor 2 at 200 nM, versus CAL-101, CZC 24832, AS 604850 and CS(−)
# Experimental: A frozen stock of the CL18_M− cell line (3.0×10^6 cells) was awaken with 10 mL of CS(−) medium, using a 25 cm^2 Flask, and the cells were then cultured in a CO2 incubator (39.5° C., 5% CO2). On the following day, 2 mL each of a CS(−) medium, to which each drug had been added, was added into each well of a 24 deep well plate (ThermoFisher Scientific, 95040480), and the cells were then seeded thereon to a cell density of 6.0×10^4 cells/mL (wherein the cell concentration and the survival rate were measured using CASY cell counter). After individual samples had been cultured for 2 days, the samples were subcultured under the same conditions to result in a cell density of 1.0×10^4 cells/mL. […] Thereafter, a plot, in which the vertical axis indicated FITC (Goat anti-Chicken IgM Antibody FITC Conjugated) and the longitudinal axis indicated PE (none), was developed, and the percentage of PE-_FITC+(cIgM+) cells was then calculated.
# Meanwhile, after completion of the culture for 7 days, individual samples were subcultured under the same conditions to result in a cell density of 6.0×10^4 cells/mL. […] At the time point of Day 14 of the culture, individual samples were measured using FACS Canto II Flow Cytometer, as with the measurement on Day 7. […]
smiles,measurement,value
Cc1nc(NC(=O)N2CCC[C@H]2C(N)=O)sc1-c1csc(C(C)(C)C)n1 [A66],Reversion activity (percentage of IgM expression-positive cells),higher Reversion activity
